# Assay: Stability of gentamicin in 0.25M HCl under autoclave conditions
# Format: physicochemical
# Conditions: earlier studies
substance,measurement,value
gentamicin,loss of gentamicin detection,No significant loss

# Source: patent US10471177B2, “Surface modified biological materials” (Orthobond Corporation, priority 2011, dated 2019)
